Data on four molecules can be found in patent US9006221B2, “Method of modulating ship activity” (H. Lee Moffitt Cancer Center and Reserach Institute, Inc., priority 2008, dated 2015).

In assay [1] the test system is priming of allogeneic T cell responses by C57Bl6/J splenocytes. In words: One-way mixed leukocyte reaction (MLR), stimulator splenocytes treated in vitro. It counts as cell-based, mouse. The note with it: splenocytes cultured with compound 72 hr, added at 0, 24 and 48 hr. On the procedure: Mean proliferation of 100K BALB/C responders as measured by ^3H-Thymidine uptake after exposure to 200K irradiated BL6 stimulators that were treated with the indicated compound, 1×DMSO or 1× EtOH prior to initiation of the mixed leukocyte reaction (MLR). 1×DMSO serves as the allogeneic MLR positive control for all compounds with the exception of HLM85321 for which 1× EtOH is the positive control. [*p<0.05, **p<0.01].
Spleen cells and lymphe node LN cells are normally robust stimulators of allogeneic T cell responses in the one-way mixed leukocyte reaction (MLR) assay, but they are very poor stimulators when obtained from mice with germline or induced SHIP-deficiency. […]
Mixed leukocyte reactions (MLR): Following RBC lysis, irradiated (2000 Rads) BL6 splenocytes (stimulators) at 8×10^5 cells/well were combined with BALB/c splenocytes (responders) at 4×10^5 cells/well in a one-way MLR assay. […] Incorporated [3H]thymidine was quantitated using a Packard TopCount NXT. Specific [3H]thymidine incorporation into genomic DNA was calculated as the average of the mean (±SEM) of sextuplicate wells. […]

The next assay addresses T1, SHIP1 (Mus musculus, UniProt Q9ES52).
T1 construct: The asterisk in lanes 1 and 3 indicates the ˜145 kD full-length SHIP protein; His tag (C); made in house; host or cells: E. coli Rosetta-Gami 2 (DE3) pLys
T1 sequence (Q9ES52 1-1191): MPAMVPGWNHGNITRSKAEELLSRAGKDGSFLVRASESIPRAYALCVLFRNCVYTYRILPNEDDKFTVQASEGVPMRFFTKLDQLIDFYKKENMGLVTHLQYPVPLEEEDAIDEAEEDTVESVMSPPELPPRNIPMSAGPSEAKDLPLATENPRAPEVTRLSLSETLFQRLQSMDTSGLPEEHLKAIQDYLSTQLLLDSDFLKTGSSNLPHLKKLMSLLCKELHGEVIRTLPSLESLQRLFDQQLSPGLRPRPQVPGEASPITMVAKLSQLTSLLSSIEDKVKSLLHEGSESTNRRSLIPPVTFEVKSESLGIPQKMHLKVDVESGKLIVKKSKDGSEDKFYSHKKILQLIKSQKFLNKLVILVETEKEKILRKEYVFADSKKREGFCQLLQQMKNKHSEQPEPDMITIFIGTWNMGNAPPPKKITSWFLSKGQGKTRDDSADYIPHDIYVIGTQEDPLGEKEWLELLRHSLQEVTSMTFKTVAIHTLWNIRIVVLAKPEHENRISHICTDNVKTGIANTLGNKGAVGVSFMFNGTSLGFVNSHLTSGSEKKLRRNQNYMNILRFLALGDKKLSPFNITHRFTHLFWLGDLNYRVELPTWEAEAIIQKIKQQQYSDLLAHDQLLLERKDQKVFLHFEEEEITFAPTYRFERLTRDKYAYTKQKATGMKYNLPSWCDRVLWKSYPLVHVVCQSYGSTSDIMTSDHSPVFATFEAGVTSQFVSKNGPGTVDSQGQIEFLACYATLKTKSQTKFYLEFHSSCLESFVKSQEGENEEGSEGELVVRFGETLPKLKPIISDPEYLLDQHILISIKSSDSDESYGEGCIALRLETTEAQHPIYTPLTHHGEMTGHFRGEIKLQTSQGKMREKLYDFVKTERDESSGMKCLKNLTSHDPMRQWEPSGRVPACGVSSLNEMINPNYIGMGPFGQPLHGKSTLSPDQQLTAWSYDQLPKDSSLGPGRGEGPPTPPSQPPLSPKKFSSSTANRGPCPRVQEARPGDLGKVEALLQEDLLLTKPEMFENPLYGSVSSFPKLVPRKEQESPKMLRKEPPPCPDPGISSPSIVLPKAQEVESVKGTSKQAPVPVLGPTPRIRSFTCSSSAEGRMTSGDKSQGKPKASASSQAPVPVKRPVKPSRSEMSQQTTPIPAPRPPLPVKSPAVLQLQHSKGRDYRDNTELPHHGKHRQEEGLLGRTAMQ
In words: Fluorescence polarization (FP) assay of SHIP1 enzymatic activity. It counts as biochemical. The note with it: confirmatory FP assay of screening hits. The text has this: SHIP is detectable in this expression system as a ˜145 kD protein (FIG. 1a, lane 1). Because of an in-frame Histidine (His) tag on the COOH terminus of SHIP, it can then be purified from E. coli lysates by FPLC over a Ni-containing resin. (FIG. 1a, lane 3). Purified SHIP was routinely obtained in sufficient quantities, using this E. coli expression system and FPLC purification, to conduct high-throughput screening (HTS) of chemical libraries for compounds that inhibit SHIP activity. However, prior to screening, a fluorescence polarization (FP) assay that detects SHIP activity in either a 96- or […] format, seen in FIG. 1b, screen was established. SHIP generates PI(3,4)P2 from its PI(3,4,5)P3 substrate. In the FP assay enzymatic generation of PI(3,4)P2 by SHIP reduces polarized fluorescence (mP) because the fluorescent PI(3,4)P2 “probe” is displaced from a detector protein that binds specifically to PI(3,4)P2. The FP assay is highly specific for SHIP activity in these lysates. No significant 5′-inositol phosphatase activity was detected in E. coli lysates harboring an ‘empty’ pet24b expression vector insert when FPLC fractions where SHIP typically elutes with the imidazole step gradient are analyzed in the FP assay (FIG. 1c).
After preparing purified SHIP and establishing the FP assay, two different chemical libraries, comprising a total of ˜2100 different chemical compounds, were screened. Seventeen compounds capable of inhibiting SHIP activity at μM concentrations were identified in this screen. The compounds were verified for SHIP activity inhibition by repeating the FP assay with the compounds obtained from their respective wells in the replicates of the masterplates for these libraries FIGS. 2-6).
A fluorescence polarization (FP) assay to detect and quantify SHIP2 activity has been previously described [Drees B E, et al., Comb Chem High Throughput Screen (2003) 6(4):321-330], but no assay has been described for the detection of SHIP1. A fluorescence polarization (FP) assay was developed to detect the activity of recombinant SHIP1 (see FIGS. 15a and b) and the FP assay was utilized as a rapid screen to detect compounds in chemical libraries that have inhibitory activity against SHIP1. This screen identified 3α-aminocholestane as a potent inhibitor of SHIP1 enzymatic activity (FIG. 15c). […] This high degree of selectivity could be important, since loss of PTEN function promotes malignancy in parenchymal and hematopoietic tissues. [Yuan T L & Cantley L C Oncogene (2008) 27(41):5497-5510; Zhang J, et al., Nature (2006) 441(7092):518-522; Yilmaz O H, et al., Nature (2006) 441(7092):475-482]
Assay of SHIP1 enzymatic activity: A fluorescent polarization (FP) assay that detects the 5′-inositol phosphatase activity of SHIP1 was developed based on a previously established protocol [Drees B E, et al., Comb Chem High Throughput Screen (2003) 6(4):321-330] and was obtained from Echelon Biosciences (Salt Lake City, USA). Modifications of the protocol included the application of SHIP1 in the assay and an increase in the concentration of MgCl2 to […] to maximize the activity of SHIP1 in this assay. Each enzymatic reaction was performed in a 96 well working plate and added in the following order and concentration: Recombinant SHIP1 (0.1 μg) in PBS+20 mM MgCl2, 100 μM of each individual compound from the NCI Diversity Set and then PI(3,4,5)P3 substrate diluted 1:10 in H2O. The enzymatic reaction was incubated for 30 min at room temperature. The detector, reaction mixture and probe were then combined according to the SHIP2 protocol. Malachite Green Phosphatase Assay Kit was obtained from Echelon Biosciences (Salt Lake City, USA). Assays for SHIP2 were performed according to the manufacturer's protocol. The concentration of SHIP1 and SHIP2 per reaction mixture was […]. PTEN was used at the concentration recommended by the manufacturer.

As to `Cc1ccc(C)c(/C(=N/N=C(N)N)C2CC2)c1.Cl` [NSC75513, 2-[(E)-[cyclopropyl-(2,5-dimethylphenyl)methylidene]amino]guanidine chloride], in assay [1], the “ability of splenocytes to prime allogeneic T cell responses by BALB/C responders (3H-thymidine uptake)” value was “significantly inhibited”. With `O=C1CN2CCN(CC2)CC(=O)Nc2ccc(cc2)S(=O)(=O)c2ccc(cc2)NC(=O)CN2CCN(CC2)CC(=O)Nc2ccc(cc2)S(=O)(=O)c2ccc(cc2)N1` [NSC 36806], the “SHIP inhibitory activity in FP assay” value at SHIP1 is recorded as “SHIP inhibitory activity”. On the same count and under the same terms, for `O=C1OC2(c3ccc(O)cc3Oc3cc(O)ccc32)c2c1c(-c1ccccc1)c(-c1ccccc1)c(-c1ccccc1)c2-c1ccccc1` [NSC 119886] the value was “SHIP inhibitory activity”. For `CCOC(=O)c1c(C)c(C)n2c1NC(=O)C2` [NSC 624983], at SHIP1, the “SHIP inhibitory activity in FP assay” value is recorded as “SHIP inhibitory activity”.
